Results from patent publication US6410529B1, “Phenyl urea and phenyl thiourea derivatives as HFGAN72 antagonists” (SmithKline Beecham p.l.c., priority 1997, dated 2002).
Counter-ions that a name gives are not always drawn.

Target: T1, human HFGAN72 receptor (Homo sapiens, UniProt O43613)
T1 construct: expressed in transfected cells; host or cells: HEK293
T1 sequence (O43613 1-425): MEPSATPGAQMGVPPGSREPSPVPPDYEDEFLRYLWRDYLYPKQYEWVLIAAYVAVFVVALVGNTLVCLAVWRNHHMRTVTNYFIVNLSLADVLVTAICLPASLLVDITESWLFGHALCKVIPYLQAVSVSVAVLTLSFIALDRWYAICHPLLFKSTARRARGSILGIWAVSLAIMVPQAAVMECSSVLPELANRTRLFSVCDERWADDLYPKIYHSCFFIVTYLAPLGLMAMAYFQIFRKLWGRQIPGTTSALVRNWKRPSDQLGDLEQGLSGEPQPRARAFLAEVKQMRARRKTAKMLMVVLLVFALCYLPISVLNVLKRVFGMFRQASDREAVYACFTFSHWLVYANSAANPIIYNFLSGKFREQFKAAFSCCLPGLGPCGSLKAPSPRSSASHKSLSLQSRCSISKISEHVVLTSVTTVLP
Test: HFGAN72 receptor antagonist activity, FLIPR intracellular calcium assay against human Lig 72A
Type: cell-based
Settings: HEK293 cells expressing human HFGAN72 receptor; against 3.0 nM human Lig 72A; Kb=IC50/(1+([3/EC50])
Description: The HFGAN72 receptor antagonist activity of the compounds of formula (I), including those compounds in which X and Y both represent CH and without provisos a)-f), was determined in accordance with the following experimental method.
HEK293 cells expressing the human HFGAN72 receptor were grown in cell medium (MEM medium with Earl's salts) containing 2 mM L-Glutamine, 0.4 mg/mL G418 Sulphate from GIBCO BRL and 10% heat inactivated fetal calf serum from Gibco BRL. The cells were seeded at 20,000 cells/100 μl/well into 96-well black clear bottom sterile plates from Costar which had been pre-coated with 10 μg/well of poly-L-lysine from SIGMA. The seeded plates were incubated overnight at 37° C. in 5% CO2.
Agonists were prepared as 1 mM stocks in water:DMSO (1:1). EC50 values (the concentration required to produce 50% maximal response) were estimated using 11× half log unit dilutions (Biomek 2000, Beckman) in Tyrode's buffer containing probenecid (10 mM HEPES with 145 mM NaCl, 10 mM glucose, 2.5 mM KCl, 1.5 mM CaCl2, 1.2 mM MgCl2 and 2.5 mM probenecid; pH7.4). […] On the day of assay 50 μl of cell medium containing probenecid (Sigma) and Fluo3AM (Texas Fluorescence Laboratories) was added (Quadra, Tomtec) to each well to give final concentrations of 2.5 mM and 4 μM, respectively. […] Cell plates were then transferred to the Fluorescent Imaging Plate Reader (FLIPR, Molecular Devices) instrument and maintained at 37° C. in humidified air. […] Agonists were added (by the FLIPR) after 20 sec (during continuous reading). From each well, peak fluorescence was determined over the whole assay period and the mean of readings 1-19 inclusive was subtracted from this figure. The peak increase in fluorescence was plotted against compound concentration and iteratively curve fitted using a four parameter logistic fit (as described by Bowen and Jerman, 1995, TiPS, 16, 413-417) to generate a concentration effect value. Antagonist Kb values were calculated using the equation: […]
where EC50 was the potency of human Lig72A determined in the assay (in nM terms) and IC50 is expressed in molar terms.

SMILES	Kb [µM]
Cn1ccc2cc(NC(=O)Nc3ccnc4ccccc34)ccc21 [Example 1, 1-(1-Methyl-1H-indol-5-yl)-3-quinolin-4-ylurea]	< 0.1
CSc1ccc(NC(=O)Nc2ccnc3ccccc23)cc1 [Example 14, 1-(4-Methylthiophenyl)-3-quinolin-4-ylurea hydrochloride]	< 0.1
COc1ccc(NC(=O)Nc2ccnc3ccccc23)cc1Cl [Example 31, 1-(3-Chloro-4-methoxyphenyl)-3-quinolin-4-ylurea hydrochloride]	< 0.1
